# Target: T1, pY705-STAT3 in PBMC (Homo sapiens, UniProt P40763)
# T1 construct: Cryopreserved Peripheral Blood Mononuclear Cells (PBMC) are from AllCells; host or cells: cryopreserved PBMC
# Assay: MSD-pSTAT-PBMC Assay (pSTAT3, IL-6 stimulated)
# Type: cell-based
# Settings: PBMC, compound 3 hrs, then 10 ng/mL IL-6 for 10 min; Table 115; read-out: STAT3
# Procedure, shortened: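 Thawed human PBMC rested overnight in IMDM/10% FBS, then got compound for 3 hrs before a 10 min cytokine pulse: 1 ng/mL IL-4 for pSTAT6, 10 ng/mL IL-6 for pSTAT3. Lysates went to MSD sandwich capture on total STAT6 or STAT3 with phospho-specific detection. IC50 came from background-subtracted, DMSO-normalized signal.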
# T1 sequence (P40763 whole entry): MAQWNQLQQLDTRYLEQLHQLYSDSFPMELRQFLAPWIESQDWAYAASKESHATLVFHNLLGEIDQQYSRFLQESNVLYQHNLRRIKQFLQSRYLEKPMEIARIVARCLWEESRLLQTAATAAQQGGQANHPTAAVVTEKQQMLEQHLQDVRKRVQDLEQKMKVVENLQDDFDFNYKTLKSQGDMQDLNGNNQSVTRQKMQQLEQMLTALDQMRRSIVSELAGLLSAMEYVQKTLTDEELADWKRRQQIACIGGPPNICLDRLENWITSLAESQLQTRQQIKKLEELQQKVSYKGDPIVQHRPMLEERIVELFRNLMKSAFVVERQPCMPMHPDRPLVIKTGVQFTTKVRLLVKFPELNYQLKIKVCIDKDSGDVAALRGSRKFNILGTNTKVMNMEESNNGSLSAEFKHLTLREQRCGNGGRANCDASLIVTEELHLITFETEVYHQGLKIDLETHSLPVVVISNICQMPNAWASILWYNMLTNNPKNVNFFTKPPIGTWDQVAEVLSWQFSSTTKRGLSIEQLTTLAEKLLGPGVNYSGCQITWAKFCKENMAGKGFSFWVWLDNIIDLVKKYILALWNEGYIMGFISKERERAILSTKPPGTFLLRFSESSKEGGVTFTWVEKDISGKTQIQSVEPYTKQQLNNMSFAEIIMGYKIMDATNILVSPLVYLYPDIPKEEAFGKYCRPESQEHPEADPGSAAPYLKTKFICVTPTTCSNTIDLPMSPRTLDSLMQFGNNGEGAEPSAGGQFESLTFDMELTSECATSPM
row,Compound,IC50
1,"CCCOC(=O)[C@H](C)NP(=O)(Cc1ccc2sc(C(=O)N[C@H]3CCC[C@H]4CC[C@@H](C(=O)N5CC(c6cnc(F)cc6OC)C5)N4C3=O)cc2c1)Oc1ccccc1 (stereo partly drawn) [Compound 278, propyl (((2-(((3S,6S,9aS)-3-(3-(6-fluoro-4-methoxypyridin-3-yl)azetidine-1-carbonyl)-5-oxooctahydro-1H-pyrrolo[1,2-a]azepin-6-yl)carbamoyl)benzo [b]thiophen-5-yl)methyl)(phenoxy)phosphoryl)-L-alaninate]",0.1 to 1 µM
2,"CCCOC(=O)[C@H](C)NP(=O)(Oc1ccccc1)[C@H](F)c1ccc2sc(C(=O)N[C@H]3CCC[C@H]4CC[C@@H](C(=O)N5CC(c6cnccc6N6CCC6)C5)N4C3=O)cc2c1 (stereo partly drawn) [Compound 1024, propyl (((S)-(2-(((3S,6S,9aS)-3-(3-(4-(azetidin-1-yl)pyridin-3-yl)azetidine-1-carbonyl)-5-oxooctahydro-1H-pyrrolo[1,2-a]azepin-6-yl)carbamoyl)benzo [b]thiophen-5-yl)fluoromethyl) (phenoxy)phosphoryl)-L-alaninate]",0.1 to 1 µM
3,"CC(C)COC(=O)[C@@H](NP(=O)(Cc1ccc2sc(C(=O)N[C@H]3CCC[C@H]4CC[C@@H](C(=O)N5CC(c6cccnc6)C5)N4C3=O)cc2c1)Oc1ccccc1)C(C)C (stereo partly drawn) [Compound 948, isobutyl (((2-(((3S,6S,9aS)-5-oxo-3-(3-(pyridin-3-yl)azetidine-1-carbonyl)octahydro-1H-pyrrolo[1,2-a]azepin-6-yl)carbamoyl)benzo [b]thiophen-5-yl)methyl) (phenoxy)phosphoryl)-L-valinate]",1 to 3 µM
4,"COc1ccncc1C1CN(C(=O)[C@@H]2CC[C@@H]3CCC[C@H](NC(=O)c4cc5cc([C@H](F)[P@@](=O)(N[C@@H](C)C(=O)OCc6ccccc6)Oc6ccccc6)ccc5s4)C(=O)N32)C1 (single isomer, unassigned) [Compound 1051]",0.1 to 1 µM
5,"CCCC(=O)SCCOP(=O)(OCCSC(=O)CCC)C(F)(F)c1ccc2sc(C(=O)N[C@H]3CCC[C@H]4CC[C@@H](C(=O)N5CC(c6nncn6C)C5)N4C3=O)cc2c1 [Compound 964, S,S′-((((difluoro(2-(((3S,6S,9aS)-3-(3-(4-methyl-4H-1,2,4-triazol-3-yl)azetidine-1-carbonyl)-5-oxooctahydro-1H-pyrrolo[1,2-a]azepin-6-yl)carbamoyl)benzo [b]thiophen-5-yl)methyl)phosphoryl)bis(oxy))bis(ethane-2,1-diyl)) dibutanethioate]",0.1 to 1 µM
6,"CCCOC(=O)[C@H](C)NP(=O)(Oc1ccccc1)C(F)c1ccc2sc(C(=O)N[C@H]3CCCC[C@H]4CC[C@@H](C(=O)N[C@H]5CN(C(N)=O)C[C@@H]5F)N4C3=O)cc2c1 (stereo partly drawn) [Compound 958, propyl (((2-(((3S,6S,10aS)-3-(((3S,4S)-1-carbamoyl-4-fluoropyrrolidin-3-yl)carbamoyl)-5-oxodeca-hydropyrrolo [1,2-a]azocin-6-yl)carbamoyl)benzo [b]thiophen-5-yl)fluoromethyl) (phenoxy)phosphoryl)-L-alaninate]",1 to 3 µM
7,"CCCOC(=O)[C@H](C)N[P@](=O)(Oc1ccccc1)[C@@H](F)c1ccc2sc(C(=O)N[C@H]3CCC[C@H]4CC[C@@H](C(=O)N5CC(c6cccnc6)C5)N4C3=O)cc2c1 (single isomer, unassigned) [Compound 446]",< 0.1 µM
8,"CCCOC(=O)[C@H](C)NP(=O)(Cc1ccc2sc(C(=O)N[C@H]3CCC[C@H]4CC[C@@H](C(=O)N[C@H]5CN(C(C)=O)C[C@H]5F)N4C3=O)cc2c1)Oc1ccccc1 (stereo partly drawn) [Compound 309, propyl (((2-(((3S,6S,9aS)-3-(((3S,4R)-1-acetyl-4-fluoropyrrolidin-3-yl)carbamoyl)-5-oxooctahydro-1H-pyrrolo[1,2-a]azepin-6-yl)carbamoyl)benzo [b]thiophen-5-yl)methyl)(phenoxy)phosphoryl)-L-alaninate]",> 3 µM
9,"CC[C@H](C)OC(=O)[C@H](C)NP(=O)(Cc1ccc2sc(C(=O)N[C@H]3CCC[C@H]4CC[C@@H](C(=O)N5CC(c6cccnc6)C5)N4C3=O)cc2c1)Oc1ccccc1 (stereo partly drawn) [Compound 276, (S)-sec-butyl (((2-(((3S,6S,9aS)-5-oxo-3-(3-(pyridin-3-yl)azetidine-1-carbonyl)octahydro-1H-pyrrolo[1,2-a]azepin-6-yl)carbamoyl)benzo [b]thiophen-5-yl)methyl)(phenoxy)phosphoryl)-L-alaninate]",0.1 to 1 µM
10,"CCCOC(=O)[C@H](C)NP(=O)(Cc1ccc2sc(C(=O)N[C@H]3CCC[C@H]4CC[C@@H](C(=O)N5CC(c6cccnc6)C5)N4C3=O)cc2c1)N1CCOCC1 (stereo partly drawn) [Compound 426, propyl (morpholino((2-(((3S,6S,9aS)-5-oxo-3-(3-(pyridin-3-yl)azetidine-1-carbonyl)octahydro-1H-pyrrolo[1,2-a]azepin-6-yl)carbamoyl)benzo [b]thiophen-5-yl)methyl)phosphoryl)-L-alaninate]",> 3 µM
11,"CCCOC(=O)[C@H](C)NP(=O)(Oc1ccccc1)C(C)c1ccc2sc(C(=O)N[C@H]3CCC[C@H]4CC[C@@H](C(=O)N5CC(c6cccnc6)C5)N4C3=O)cc2c1 (stereo partly drawn) [Compound 435, propyl ((1-(2-(((3S,6S,9aS)-5-oxo-3-(3-(pyridin-3-yl)azetidine-1-carbonyl)octahydro-1H-pyrrolo[1,2-a]azepin-6-yl)carbamoyl)benzo [b]thiophen-5-yl)ethyl)(phenoxy)phosphoryl)-L-alaninate]",0.1 to 1 µM
12,CCCOC(=O)[C@H](C)NP(=O)(Oc1ccccc1)[C@@H](F)c1ccc2sc(C(=O)N[C@H]3CCC[C@H]4CC[C@@H](C(=O)N5CC(c6cncnc6N6CCC6)C5)N4C3=O)cc2c1 (stereo partly drawn) [Compound 1075],< 0.1 µM
13,"CC(C)CC(=O)SCCOP(=O)(OCOC(=O)OC1CCOCC1)C(F)(F)c1ccc2sc(C(=O)N[C@H]3CCC[C@H]4CC[C@@H](C(=O)N5CC(c6ncccn6)C5)N4C3=O)cc2c1 (stereo partly drawn) [Compound 1105, S-(2-(((difluoro(2-(((3S,6S,9aS)-5-oxo-3-(3-(pyrimidin-2-yl)azetidine-1-carbonyl)octahydro-1H-pyrrolo[1,2-a]azepin-6-yl)carbamoyl)benzo [b]thiophen-5-yl)methyl)(((((tetra-hydro-2H-pyran-4-yl)oxy)carbonyl)oxy)methoxy)phosphoryl)oxy)ethyl) 3-methylbutanethioate]",< 0.1 µM
14,"CCCOC(=O)[C@H](C)NP(=O)(Oc1ccccc1)[C@@H](F)c1ccc2sc(C(=O)N[C@H]3CCC[C@H]4CC[C@@H](C(=O)N5CC(c6cncc(F)c6N(C)C)C5)N4C3=O)cc2c1 (stereo partly drawn) [Compound 1022, propyl (((R)-(2-(((3S,6S,9aS)-3-(3-(4-(dimethylamino)-5-fluoropyridin-3-yl)azetidine-1-carbonyl)-5-oxooctahydro-1H-pyrrolo[1,2-a]azepin-6-yl)carbamoyl)benzo [b]thiophen-5-yl)fluoromethyl) (phenoxy)phosphoryl)-L-alaninate]",< 0.1 µM

# Same assay, conditions: STAT3, PBMC, compound 3 hrs, then 10 ng/mL IL-6 for 10 min; Table 115
row,Compound,IC50
1,"CCCOC(=O)C(C)(C)NP(=O)(Cc1ccc2sc(C(=O)N[C@H]3CCC[C@H]4CC[C@@H](C(=O)N5CC(c6cccnc6)C5)N4C3=O)cc2c1)Oc1ccccc1 (stereo partly drawn) [Compound 445, propyl 2-methyl-2-((((2-(((3S,6S,9aS)-5-oxo-3-(3-(pyridin-3-yl)azetidine-1-carbonyl)octahydro-1H-pyrrolo[1,2-a]azepin-6-yl)carbamoyl)benzo [b]thiophen-5-yl)methyl)(phenoxy)phosphoryl)amino) propanoate]",< 0.1 µM
